These results are taken from the NIST ThermoML archive (doi:10.1007/s10765-013-1432-0).

Numbers after ± are expanded uncertainties.

As usually defined, the speed of sound is the propagation velocity of pressure waves in the medium.

The nature of this series: mn = molality of the nth substance listed, in mol/kg. The note with it: 101 kPa, Liquid, Linear variable-path acoustic interferometer, m1 = 0.512.

On to `O=[N+]([O-])[O-].[K+]` [potassium nitrate] + O, for which the speed of sound worked out at 1517.8 ± 1.8 m/s (298.15 K); 1526.8 ± 1.8 m/s (303.15 K); 1536.3 ± 1.8 m/s (308.15 K); 1544.4 ± 1.8 m/s (313.15 K); 1551.1 ± 1.8 m/s (318.15 K); 1556.6 ± 1.9 m/s (323.15 K).

For the compound `O=S(=O)([O-])[O-].[K+].[K+]` [potassium sulfate] + O, the speed of sound is, setting by setting: (298.15 K) 1563.6 ± 1.9 m/s; (303.15 K) 1571.6 ± 1.8 m/s; (308.15 K) 1580.3 ± 1.8 m/s; (313.15 K) 1587.6 ± 1.8 m/s; (318.15 K) 1593.5 ± 1.8 m/s; (323.15 K) 1598.3 ± 1.9 m/s.
